According to ChEMBL document CHEMBL2074456, “Estrone and 17beta-estradiol reverse breast cancer resistance protein-mediated multidrug resistance” (Jpn J Cancer Res, 2002):

Legend:
[1] = molecular target: T1, Broad substrate specificity ATP-binding cassette transporter ABCG2 (Homo sapiens, UniProt Q9UNQ0); experiment: TP_TRANSPORTER: inhibition of Topotecan efflux (Topotecan: 20 uM, Estrone: 100 uM) in BCRP-expressing K562 cells: flow cytometric analysis; type: functional, cell-based; conditions: k562, 100 µM
T1 sequence (Q9UNQ0 whole entry): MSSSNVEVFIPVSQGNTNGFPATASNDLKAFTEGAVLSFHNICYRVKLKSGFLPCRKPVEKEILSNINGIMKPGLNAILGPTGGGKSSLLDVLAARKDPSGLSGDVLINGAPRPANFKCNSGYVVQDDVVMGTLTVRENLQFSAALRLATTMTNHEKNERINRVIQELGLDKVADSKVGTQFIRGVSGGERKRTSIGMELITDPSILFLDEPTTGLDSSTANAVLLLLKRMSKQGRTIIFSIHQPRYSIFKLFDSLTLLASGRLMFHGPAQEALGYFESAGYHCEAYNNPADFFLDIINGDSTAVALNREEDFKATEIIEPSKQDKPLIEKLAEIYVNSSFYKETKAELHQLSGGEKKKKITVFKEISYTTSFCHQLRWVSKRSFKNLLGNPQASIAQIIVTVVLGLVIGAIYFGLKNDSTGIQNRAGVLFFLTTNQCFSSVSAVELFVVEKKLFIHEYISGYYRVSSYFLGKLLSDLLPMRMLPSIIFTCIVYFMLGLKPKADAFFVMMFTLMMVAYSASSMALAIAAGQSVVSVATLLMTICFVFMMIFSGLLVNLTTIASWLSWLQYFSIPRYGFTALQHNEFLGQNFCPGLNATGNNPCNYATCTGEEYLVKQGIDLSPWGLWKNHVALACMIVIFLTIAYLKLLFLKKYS

[2] = molecular target: T1, Broad substrate specificity ATP-binding cassette transporter ABCG2; experiment: TP_TRANSPORTER: inhibition of Topotecan efflux (Topotecan: 20 uM, beta-Estradiol: 100 uM) in BCRP-expressing K562 cells: flow cytometric analysis; type: functional, cell-based; conditions: k562, 100 µM

Activity [1] | Activity [2] | SMILES
inhibitor [+] |  | C[C@]12CC[C@@H]3c4ccc(O)cc4CC[C@H]3[C@@H]1CCC2=O [ESTRONE]
 | inhibitor [+] | C[C@]12CC[C@@H]3c4ccc(O)cc4CC[C@H]3[C@@H]1CC[C@@H]2O [ESTRADIOL]
